Non-standard residues stand in square brackets, D forms with d. Residues, ends and D or L forms follow the SMILES beside them. Cya = N[C@@H](CS(=O)(=O)O)C(=O)O; pGlu = O=C1CC[C@@H](C(=O)O)N1

The subject of the first test is mAb 1H11. Nature of the test: OSTEOMARK competitive immunoassay testing apparent affinity of synthetic peptides for mAb 1H11. In kind it is binding. As to conditions: nanomoles Bone Collagen Equivalents equivalent to 1 μg peptide; back fit into OSTEOMARK standard curve; values between 0.5 and 1 OD averaged. From the text: Generally, a milligram per mL solution of the peptide was made in PBS. The absorbence at A280 was read and the concentration confirmed. Dilutions of the peptide were then made in a buffer such as OSTEOMARK (TM) calibrator diluent (OSTEOMARK Assay, Ostex International, Seattle, Wash.). Working strength concentrations were between 10 and 0.01 micrograms per milliliter.
To test the apparent affinity of the synthetic peptides for mAb 1H11, the OSTEOMARK assay was run using OSTEOMARK kits and components, including monoclonal antibody 1H11. A standard curve was run using OSTEOMARK calibrators. Peptide samples were generally tested at 10, 3, 1, and down to 0.01 μG per mL. The standard OSTEOMARK curve was generated using a four parameter logistic curve fit program (MedData Inc., N.Y., N.Y.). Peptide values were back fit into the standard curve and values were reported in picomoles Bone Collagen Equivalents (BCE)/mL (which equals nanomolar BCE, or nM BCE).
Values in the Table are reported as the number of nanomoles of BCE equivalent to a microgram of a given peptide. Antibody binding values below 500 nMole BCE were considered to be commercially insignificant.
`CC(C)[C@H](NC(=O)CNC(=O)[C@H](C)NC(=O)CNC(=O)[C@H](CC(=O)O)NC(=O)[C@H](Cc1ccc(O)cc1)NC(=O)[C@@H]1CCC(=O)N1)C(=O)NCC(=O)O` [SEQ ID NO:1, J Y D G A G V G] ([pGlu]YDGAGVG-OH): the “Results: peptide binding to mAb 1H11, 1 μg synthetic peptide = X nmole BCE” value (from here on “Results: peptide binding to mAb 1H11”) came out at 483 nmole BCE. On the same count and under the same terms, the value for `CC(C)[C@H](NC(=O)CNC(=O)[C@H](CCC(=O)O)NC(=O)CNC(=O)[C@H](CC(=O)O)NC(=O)[C@H](Cc1ccc(O)cc1)NC(=O)[C@@H]1CCC(=O)N1)C(=O)NCC(=O)O` [SEQ ID NO:4, J Y D G E G V G] ([pGlu]YDGEGVG-OH) was 2400 nmole BCE; that for `CC(C)[C@H](NC(=O)CNC(=O)[C@H](Cc1ccccc1)NC(=O)CNC(=O)[C@H](CC(=O)O)NC(=O)[C@H](Cc1ccc(O)cc1)NC(=O)[C@@H]1CCC(=O)N1)C(=O)NCC(=O)O` [SEQ ID NO:5, J Y D G F G V G] ([pGlu]YDGFGVG-OH) was 365 nmole BCE. For the compound `CC(C)[C@H](NC(=O)CNC(=O)CNC(=O)CNC(=O)[C@H](CC(=O)O)NC(=O)[C@H](Cc1ccc(O)cc1)NC(=O)[C@@H]1CCC(=O)N1)C(=O)NCC(=O)O` [SEQ ID NO:6, J Y D G G G V G] ([pGlu]YDGGGVG-OH), the “Results: peptide binding to mAb 1H11” value stood at 114 nmole BCE. Still for that read-out and setting: the result for `CC(C)[C@H](NC(=O)CNC(=O)[C@H](Cc1c[nH]cn1)NC(=O)CNC(=O)[C@H](CC(=O)O)NC(=O)[C@H](Cc1ccc(O)cc1)NC(=O)[C@@H]1CCC(=O)N1)C(=O)NCC(=O)O` [SEQ ID NO:7, J Y D G H G V G] ([pGlu]YDGHGVG-OH) reads 650 nmole BCE; that for `CC[C@H](C)[C@H](NC(=O)CNC(=O)[C@H](CC(=O)O)NC(=O)[C@H](Cc1ccc(O)cc1)NC(=O)[C@@H]1CCC(=O)N1)C(=O)NCC(=O)N[C@H](C(=O)NCC(=O)O)C(C)C` [SEQ ID NO:8, J Y D G I G V G] ([pGlu]YDGIGVG-OH), 250 nmole BCE; that for `CC(C)C[C@H](NC(=O)CNC(=O)[C@H](CC(=O)O)NC(=O)[C@H](Cc1ccc(O)cc1)NC(=O)[C@@H]1CCC(=O)N1)C(=O)NCC(=O)N[C@H](C(=O)NCC(=O)O)C(C)C` [SEQ ID NO:10, J Y D G L G V G] ([pGlu]YDGLGVG-OH), 230 nmole BCE. Still for that read-out and setting: the result for `CSCC[C@H](NC(=O)CNC(=O)[C@H](CC(=O)O)NC(=O)[C@H](Cc1ccc(O)cc1)NC(=O)[C@@H]1CCC(=O)N1)C(=O)NCC(=O)N[C@H](C(=O)NCC(=O)O)C(C)C` [SEQ ID NO:11, J Y D G M G V G] ([pGlu]YDGMGVG-OH) reads 183 nmole BCE; that for `CC(C)[C@H](NC(=O)CNC(=O)[C@H](CC(N)=O)NC(=O)CNC(=O)[C@H](CC(=O)O)NC(=O)[C@H](Cc1ccc(O)cc1)NC(=O)[C@@H]1CCC(=O)N1)C(=O)NCC(=O)O` [SEQ ID NO:12, J Y D G N G V G] ([pGlu]YDGNGVG-OH), 135 nmole BCE; that for `CC(C)[C@H](NC(=O)CNC(=O)[C@@H]1CCCN1C(=O)CNC(=O)[C@H](CC(=O)O)NC(=O)[C@H](Cc1ccc(O)cc1)NC(=O)[C@@H]1CCC(=O)N1)C(=O)NCC(=O)O` [SEQ ID NO:13, J Y D G P G V G] ([pGlu]YDGPGVG-OH), 2056 nmole BCE. Take `CC(C)[C@H](NC(=O)CNC(=O)[C@H](CCC(N)=O)NC(=O)CNC(=O)[C@H](CC(=O)O)NC(=O)[C@H](Cc1ccc(O)cc1)NC(=O)[C@@H]1CCC(=O)N1)C(=O)NCC(=O)O` [SEQ ID NO:14, J Y D G Q G V G] ([pGlu]YDGQGVG-OH): the “Results: peptide binding to mAb 1H11” value was 148 nmole BCE. In the case of `CC(C)[C@H](NC(=O)CNC(=O)[C@H](CCCNC(=N)N)NC(=O)CNC(=O)[C@H](CC(=O)O)NC(=O)[C@H](Cc1ccc(O)cc1)NC(=O)[C@@H]1CCC(=O)N1)C(=O)NCC(=O)O` [SEQ ID NO:15, J Y D G R G V G] ([pGlu]YDGRGVG-OH), the “Results: peptide binding to mAb 1H11” value stood at 23 nmole BCE. Same read-out and setting: the value for `CC(C)[C@H](NC(=O)CNC(=O)[C@H](CO)NC(=O)CNC(=O)[C@H](CC(=O)O)NC(=O)[C@H](Cc1ccc(O)cc1)NC(=O)[C@@H]1CCC(=O)N1)C(=O)NCC(=O)O` [SEQ ID NO:16, J Y D G S G V G] ([pGlu]YDGSGVG-OH) was 30 nmole BCE; that for `CC(C)[C@H](NC(=O)CNC(=O)[C@@H](NC(=O)CNC(=O)[C@H](CC(=O)O)NC(=O)[C@H](Cc1ccc(O)cc1)NC(=O)[C@@H]1CCC(=O)N1)[C@@H](C)O)C(=O)NCC(=O)O` [SEQ ID NO:17, J Y D G T G V G] ([pGlu]YDGTGVG-OH) was 252 nmole BCE. Take `CC(C)[C@H](NC(=O)CNC(=O)[C@H](CC(=O)O)NC(=O)[C@H](Cc1ccc(O)cc1)NC(=O)[C@@H]1CCC(=O)N1)C(=O)NCC(=O)N[C@H](C(=O)NCC(=O)O)C(C)C` [SEQ ID NO:18, J Y D G V G V G] ([pGlu]YDGVGVG-OH): the “Results: peptide binding to mAb 1H11” value is 400 nmole BCE.

In the case of `CC(C)[C@H](NC(=O)CNC(=O)[C@H](Cc1c[nH]c2ccccc12)NC(=O)CNC(=O)[C@H](CC(=O)O)NC(=O)[C@H](Cc1ccc(O)cc1)NC(=O)[C@@H]1CCC(=O)N1)C(=O)NCC(=O)O` [SEQ ID NO:19, J Y D G W G V G] ([pGlu]YDGWGVG-OH), the “Results: peptide binding to mAb 1H11” value came to 1300 nmole BCE. On the same count and under the same terms, the value for `CC(C)[C@H](NC(=O)CNC(=O)[C@H](Cc1ccc(O)cc1)NC(=O)CNC(=O)[C@H](CC(=O)O)NC(=O)[C@H](Cc1ccc(O)cc1)NC(=O)[C@@H]1CCC(=O)N1)C(=O)NCC(=O)O` [SEQ ID NO:20, J Y D G Y G V G] ([pGlu]YDGYGVG-OH) was 104 nmole BCE.

In the case of `CC(C)[C@H](NC(=O)CNC(=O)[C@H](CS(=O)(=O)O)NC(=O)CNC(=O)[C@H](CC(=O)O)NC(=O)[C@H](Cc1ccc(O)cc1)NC(=O)[C@@H]1CCC(=O)N1)C(=O)NCC(=O)O` [SEQ ID NO:26, j Y D G X^2 G V G] ([pGlu]YDG[Cya]GVG-OH), the “Results: peptide binding to mAb 1H11” value is recorded as 1000 nmole BCE.

The test is the same for the next values; noted with them: nanomoles Bone Collagen Equivalents equivalent to 1 μg peptide; back fit into OSTEOMARK standard curve; values between 0.5 and 1 OD averaged; listed as 3.
Consider `CC(C)[C@H](NC(=O)CNC(=O)[C@H](CC(=O)O)NC(=O)CNC(=O)[C@H](CC(=O)O)NC(=O)[C@H](Cc1ccc(O)cc1)NC(=O)[C@@H]1CCC(=O)N1)C(=O)NCC(=O)O` [SEQ ID NO:3, J Y D G D G V G] ([pGlu]YDGDGVG-OH), for which the “Results: peptide binding to mAb 1H11” value was determined as 1840 nmole BCE.

Still in this test, the particulars now being: synthetic peptide, antibody inhibition assay.
Consider `CC(C)[C@H](NC(=O)CNC(=O)[C@H](CCC(=O)O)NC(=O)CNC(=O)[C@H](CC(=O)O)NC(=O)[C@H](Cc1ccc(O)cc1)NC(=O)[C@@H](N)CCC(=O)O)C(=O)NCC(=O)O` [EYDGEGVG] (H-EYDGEGVG-OH), for which the “binding to mAb 1H11 (in words)” value is listed as “not recognized”. On to `CC(C)[C@H](NC(=O)CNC(=O)[C@H](CCC(=O)O)NC(=O)CNC(=O)[C@H](CC(=O)O)NC(=O)[C@H](Cc1ccc(O)cc1)NC(=O)[C@@H]1CCC(=O)N1)C(=O)NCC(=O)O` [SEQ ID NO:4, J Y D G E G V G] ([pGlu]YDGEGVG-OH), for which the “binding to mAb 1H11 (in words)” value is reported as “Improved binding”. As to `CC(C)[C@H](NC(=O)CNC(=O)[C@H](Cc1c[nH]cn1)NC(=O)CNC(=O)[C@H](CC(=O)O)NC(=O)[C@H](Cc1ccc(O)cc1)NC(=O)[C@@H]1CCC(=O)N1)C(=O)NCC(=O)O` [SEQ ID NO:7, J Y D G H G V G] ([pGlu]YDGHGVG-OH), the “binding to mAb 1H11 (in words)” value is on record as “more limited degree of 1H11 binding”.

The same test, now with this note: synthetic peptide, antibody inhibition assay; listed as Gln-Tyr-Asp-Gly-Glu-Gly-Val-Gly.
Turning to `CC(C)[C@H](NC(=O)CNC(=O)[C@H](CCC(=O)O)NC(=O)CNC(=O)[C@H](CC(=O)O)NC(=O)[C@H](Cc1ccc(O)cc1)NC(=O)[C@@H]1CCC(=O)N1)C(=O)NCC(=O)O` [SEQ ID NO:4, J Y D G E G V G] ([pGlu]YDGEGVG-OH), the “binding to mAb 1H11 (in words)” value is reported as “comparable to that of the cross-linked NTx antigen”.

The record behind these values is patent US5817755A, “Synthetic peptide analogs of cross-linked N-telopeptides of type I collagen” (Washington Research Foundation, priority 1997, dated 1998).
